From patent US20250339445A1, “Modulators of Orphan Nuclear Receptors for Treating Pancreatitis, Glioblastoma, Sarcopenia and Stroke” (Emory University, priority 2020, published 2025)
Entries after “also recorded” stand apart in the source; their conditions may differ.

Columns and labels:
[1] = test system: CD4^+ Th17 cells; assay: Modulation of Th17 populations in human PBMCs (flow cytometry); assay type: cell-based; details: 10 μM, 3 day assay
Description: Human peripheral blood mononuclear cells (PBMCs) were isolated from four healthy donors. Four experiments were conducted and analyzed by flow cytometry over 3 day assay. The control group had no drug treatment, a second were treated with 10 μM Compound 1, a third group was stimulated with PHA/IL-2 without treatment, and the fourth group was stimulated with PHA/IL-2 and incubated with 10 μM Compound 1. […] Further, Compound 1 has no effect on Th17 populations in the absence of PHA/IL-2 stimulation.

[2] = test system: Huh7 cells; assay: LDH release from Huh7 cells; assay type: cell-based, human; details: Huh7, 16 h exposure
[3] = test system: miR-122; assay: Expression and secretion of RORα-regulated microRNA in Huh-7 cells (qRT-PCR); assay type: cell-based, human
Description: Secreted microRNA levels in the medium of Huh-7 cells were analyzed by qRT-PCR and were normalized to spiked C. elegans miR-39. miR-18 and miR-93 served as controls for secreted microRNA and were not affected following Compound 1 addition.
RNA extraction and quantitative Real-Time PCR analysis. Total RNA, including small RNAs, were isolated from […] of plasma or culture media samples using the miRNeasy Mini kit (Qiagen, Valencia, CA, USA) with 2 minor modifications. First, 200 μl of plasma or culture media were lysed with 1 ml of Qiazol solution. Second, a 50 pmol/1 of synthesized single strand Caenorhabditis elegans miRNA (cel-miR-39) was added as the spike-in control to monitor extraction efficiency. The remainder of the RNA extraction was performed according to the manufacturer's instructions. miRNAs were eluted with 30 μl of RNase-free water. Total RNA, including miRNAs, from cells or tissues were isolated using TRIzol reagent (Invitrogen, Carlsbad, CA, USA). cDNA was synthesized using the Quanta Biosciences qScript™ cDNA Synthesis Kit (95047-100) for mRNA analysis, and using the qScript™ microRNA cDNA Synthesis Kit (95107-100) for miRNAs analysis. qRT-PCR of miRNAs and mRNA was performed using the ABI 7900 HT Real-Time PCR System and a SYBR Green PCR Kit: Quanta Cat. #84018 and #84071 respectively. The fold expression and statistical significance were calculated using the 2-ΔΔ Ct method. All experiments were performed in triplicates.

[4] = Plasma half-life; assay type: in vivo, mice; details: mouse, read-out: plasma t1/2 (converted)
[5] = test system: high-fat-fed C57BL/6 mice; assay: High-fat-diet-fed C57BL/6 mice treated with Compound 1 and/or antagomiR-122; assay type: in vivo
Description: C57BL/6 mice were fed a 50% high fat diet (HFD) for four weeks. The control cohort received three hydrodynamic tail vein injections of a 5 μg antagomiR-control and six i.p injections of saline over three weeks. A second cohort was hydrodynamic tail vein injected with 5 μg antagomiR-122 (the reverse complement that inhibits activity of miR-122) three times and i.p injections of saline six times over three weeks. A third cohort was injected i.p. with Compound 1 (7.5 mg/kg) twice a week plus antagomiR-control once a week over the course of 3 weeks. The final cohort was injected i.p. with Compound 1 (7.5 mg/kg) twice a week plus antagomiR-122 injections once a week over the course of 3 weeks.
Male C57BL/6J mice, 7 to 8 weeks old, were housed randomly in standard cages and were fed a HFD, or atherogenic diet (consisting 1% Chol and 0.5% cholic acid, see also Table 6). All mice had free access to water during the experimental period. During the feeding period body weight was monitored every 3 days. In the HFD experiment, after 4 or 6 weeks, the resultant obese mice were treated with antagomiR-122 (5 μg/mouse once a week for 3 weeks), or i.p. injected with Compound 1 (RORα agonist, 7.5 mg/kg twice a week for 3 weeks; or 15 mg/kg 3 times a week for 3 weeks). The obese control (HFD) group was administered only saline with DMSO and antagomiR-control. After 3 weeks of treatment mice were sacrificed and livers were taken for RNA-seq analysis. Livers, white adipose, and skeletal muscle tissues were frozen in liquid nitrogen or in optimum cutting temperature embedded frozen blocks, for further RNA and histologic analysis. In the atherogenic diet experiment mice were treated with 15 mg/kg Compound 1 after 3 weeks with the diet. After 3.5 weeks of treatment, mice were sacrificed, and the livers were frozen in liquid nitrogen or in optimum cutting temperature embedded frozen blocks. Plasma was collected from atherogenic diet-fed mice and saved in −20° C. for ALT and AST analysis using the Reflotron® Analyzer and test-strips (Roche).
In the HFD experiment, after 4 or 6 weeks, the resultant obese mice were treated with antagoMIR122 (5 μg/mouse once a week for 3 weeks), or i.p. injected with Compound 1 (RORα agonist, 7.5 mg/kg twice a week for 3 weeks; or 15 mg/kg 3 times a week for 3 weeks). The obese control (HFD) group was administered only saline with DMSO and antagomiR-control.
Mice were fed with a 50% HFD and after 4 weeks, when fatty liver was already established, they were treated with Compound 1, antagoMIR122 or both compounds together for an additional 3 weeks. […] The weighing of mice began at week 3, one week before treatments were initiated. […] The liver weight of the mice was in accordance with their body weight.

[6] = Cellular toxicity assay, CEM cells; assay type: cell-based; details: human, CEM cells (human lymphoblastoid), compared to cycloheximide (+ control)
Description: The toxicity of the compounds was assessed in human PBM, CEM (human lymphoblastoid), and Huh-7 cells, as described previously (see Schinazi R. F., Sommadossi J.-P., Saalmann V., Cannon D. L., Xie M.-Y., Hart G. C., Smith G. A. & Hahn E. F. Antimicrob. Agents Chemother. 1990, 34, 1061-67). Cycloheximide was included as positive cytotoxic control, and untreated cells exposed to solvent were included as negative controls. The cytotoxicity IC50 was obtained from the concentration-response curve using the median effective method described previously (see Chou T.-C. & Talalay P. Adv. Enzyme Regul. 1984, 22, 27-55; Belen'kii M. S. & Schinazi R. F. Antiviral Res. 1994, 25, 1-11).

half-life [4]: 2.7 h
Structure (SMILES): O=C1Nc2cc(C(=O)N3CCC(Cc4ccccc4)CC3)ccc2Nc2ccccc21 [Compound 1]
Th17 total population in the presence of PHA/IL-2 stimulation ([1]; relative to vehicle-control): decreases the CD4^+ Th17 population | Total viability of CD4^+ T cells ([1]; with or without PHA/IL-2): no effect | Toxicity to the cells as measured by LDH release [2]: no apparent toxicity | Secreted control microRNA (miR-18, miR-93) in Huh-7 medium ([3]; 1 μM, 24 hours): not affected | Secreted miR-122 level in Huh-7 medium ([3]; 1 μM, 24 hours): increases secretion of miR-122 | Cellular miR-122 levels ([3]; Huh7, 16 h exposure): did not change | miR-122 secreted to the medium ([3]; Huh7, 16 h exposure): significant miR-122 was secreted to the medium; also recorded: significant amount of MIR122 was secreted to the medium | Hepatic lipid droplets and TG content ([5]; 50% HFD, 7.5 mg/kg twice a week, 3 weeks): reduced | Body weight, Compound 1 co-administered with antagomiR-122 ([5]; 50% HFD, 3 weeks): returned exactly to that of control animals | Dgat1 (MIR122 target gene) in the liver ([5]; 50% HFD, 3 weeks of treatment): reduced | Energy expenditure (β-hydroxybutyrate plasma level as surrogate marker) ([5]; 50% HFD, 3 weeks of treatment): increases energy expenditure; also recorded: increase | FGF21 (RORα target gene) in the liver ([5]; 50% HFD, 3 weeks of treatment): increased | MIR122 levels in plasma and muscle (secretion) ([5]; 50% HFD, 3 weeks of treatment): enhanced; also recorded: increase of MIR122 | Mature MIR122 level in the liver ([5]; 50% HFD, 3 weeks of treatment): no increase | Muscle TG levels ([5]; 50% HFD, 3 weeks of treatment): reduced | pri- and pre-MIR122 in the liver ([5]; 50% HFD, 3 weeks of treatment): increased significantly | Body weight ([5]; 50% HFD, Compound 1 7.5 mg/kg i.p. twice a week, antagomiR once a week, 3 weeks, 7.5 mg/kg): weight steadily decreased; also recorded: reduces body weight; also recorded: significant decrease in body weight | Hepatic RORα level ([5]; HFD-fed mice): increased the RORα level to its level in mice fed normal diet | CC50 [6]: 11 µM
